Values after ≈ are worked out from the molar mass of the structure shown. {Fluorescein} = fluorescein label; {Biotin} = biotin label; d = 2'-deoxy (DNA); r = 2'-OH (RNA)
Legend:
[1] = system: borderline oxacillin resistant S. aureus (BORSA) isolates; experiment: Disk diffusion, oxacillin in the presence of clavulanic acid; assay type: cell-based, Staphylococcus aureus
Description: (§1) The crude lysate preparations, probe synthesis, CPT procedure and analyses were carried out as described in Example 4 except that the cells were picked from the TSA blood plate with a 1 μl plastic loop (PML Microbiological, Richmond, BC, Canada) resuspended in 50 μl of 0.05% Triton X-100® in 20 mM TES buffer (pH 6.8) and lysed with the addition of achromopeptidase (Wako Bioproducts) as described in Example 4. The DNA was heat denatured at 95° C. for 5 minutes prior to use. The experiment was carried out as an operator blind study. The isolates were also tested with conventional oxacillin screening agar (PML Microbiological), Kirby-Bauer Disc diffusion, minimal inhibitory concentration (MIC) using E-Test with 4% NaCl Meuller-Hinton and S. aureus were tested with the BBL® Crystal™ MRSA ID test (Beckton Dickinson).

[2] = system: borderline oxacillin resistant S. aureus (BORSA) isolates; experiment: Minimal inhibitory concentration (MIC) using E-Test; assay type: cell-based; details: Staphylococcus aureus
Description: as §1

mecA gene [3] = experiment: CPT Direct Fluorescence Assay (CPT-DFA) on crude lysates; assay type: biochemical, Staphylococcus aureus
Description: Two experiments were carried out for the detection of the mecA gene from clinical isolates using the direct fluorescence assay (DFA) combined with CPT (CPT-DFA). In the first experiment, 58 isolates were screened using a plate reader format, and in the second experiment, 120 isolates were screened using single tube reader format. Briefly, the assay uses a fluoresceinated and biotinylated chimeric probe complementary to a sequence within the mecA gene present in MRSA, but not in MSSA. The probe is labeled with fluorescein at the 5′ end and biotin at the 3′ end. The CPT assay is performed with crude lysate preparations from Staphylococcal cells in the presence of RNase H and the chimeric probe. After the cycling reaction, streptavidin coated magnetic beads are added to bind the uncleaved probe. The supernatant containing the cleaved fragment labeled with fluorescein is separated from the beads using a magnet and the supernatant is transferred to a glass tube or a microtiter plate for fluorescence measurement.
The source of the fifty-eight clinical isolates were obtained from Cleveland Hospital, Wishard Memorial and Vancouver General Hospital. All MRSA and MSSA cells were prepared and lysed essentially as described in Example 4 except that the lysates were prepared as either 2×McFarland No. 5 standard density or 1 μl loop of cells in 50 μl volume. One μl loop of cells is approximately equivalent to 5×McFarland No. 5 standard.
The streptavidin coated magnetic beads (Dynal M-280, Oslo, Norway) were prepared by washing two times in an equal volume of TES cycling buffer (4 mM MgCl2, 0.05% Triton X-100®, 20 mM TES, pH 6.8). The beads were then re-suspended in 10 times the original volume with cycling buffer containing NaCl. The diluted beads were added to the reactions containing biotinylated probe to a final concentration of 50 μg of beads/reaction and a final NaCl concentration of 1.5 M. Binding was carried out in a thermomixer (Eppendorf) at 37° C. with mixing at a speed of 13×100 minutes^−, for 10 minutes. The supernatant was then separated from the beads using an MPC magnet (Dynal).
Probe was detected after binding using the Fluoroskan fluorescence plate reader (Labsystems, Needham. Mass.) by placing the supernatant containing the cleaved probe in a well of MicroFluor ‘U’ black round bottom plate (Dynatech, Chantilly, Va.). To each well containing a sample, 150 μl of 0.22 M DEA pH 10 was added. Any bubbles in the wells were removed using the edge of a Kimwipe (Roswell, Ga.). The plate was scanned in the plate reader with an excitation wavelength of 485 nm, an emission wavelength of 538 nm and a scan/well time of 20×0.1 sec, at room temperature. Similar detection using the Beacon-2000 tube reader (Panvera, Madison, Wis.) was performed, by placing the supernatant containing the probe in a borosilicate glass tube (Kimble, Toledo, Ohio), that contains 11 μl of 2.0 M DEA, pH 10. The samples were then vortexed and the fluorescence intensity was measured using the static mode of the Beacon-2000 instrument. The excitation and emission wavelengths were 485 nm and 515 nm respectively and an average of 10 read cycles at 25° C. was used.
The assay used a chimeric probe FmecA945-29(XL)4B3 (SEQ ID NO:5) labeled with fluorescein at the 5′ end and three biotin at the 3′ end. Cycling reactions with crude lysate were performed in a 50 PI reaction containing 25 μl of crude lysates. The lysates were denatured at 95° C. for 2 minutes. CPT reaction was carried out and the final conditions were as follows: 1 pmol chimeric probe, 25 μl of crude lysates, 50 μM EDTA, 0.5 mM spermine, 1.5 μg of RNase H in a final reaction volume of 50 μl. All reactions were cycled in a 60° C. water bath, in microcentrifuge tubes (uncapped) for 50 minutes. Reactions were stopped with the addition of an equal volume of diluted beads (50 μg of beads/reaction in Cycling Buffer and NaCl), while still in the water bath. Binding and detection were carried out as described above. […]

mecA gene [4] = experiment: Non-isotopic CPT assay (CPT-EIA) on crude lysates of clinical isolates; assay type: biochemical, Staphylococcus aureus; details: n = 51, subtractive CPT assay
From the text: The non-isotopic MRSA Assay which combines CPT with an enzyme immunoassay (CPT-EIA) is schematically illustrated in FIG. 3. This Rapid MRSA Test uses a fluoresceinated and biotinylated chimeric probe which provides an RNase H sensitive scissile linkage when bound to the complementary base sequence of the mecA gene. The uncleaved probe (mecA negative) is detected by binding of the probe to a solid surface and attachment of an antibody conjugated with horse radish peroxidase, which converts a substrate to a colored end product. Cleavage of the probe (mecA positive) prevents binding of the probe-antibody complex to the solid surface thus preventing formation of the colored end product. A result is generated in 90 minutes.
Effective lysis of both MRSA and MSSA were developed and optimized. The composition of the Lysis Reagent is as follows: 200 Units/ml of achromopeptidase (Wako Bioproducts, Wako), 0.02 mg/ml lysostaphin (Sigma, St. Louis, Mo.), 0.05% (v/v) Triton X 100® and 20 mM TES buffer, pH 8.5. […]
After cycling, 100 μl of Binding Reagent (Peroxidase Stabilizing Buffer, DAKO, Mississauga, ON), sheep polyclonal anti-fluorescein-horse radish peroxidase conjugated antibody (1/750 dilution, NEN, Boston, Mass.) was added to the tubes. […] The plate is read using a Vmax plate reader (Molecular Devices) set at OD of 650 nm (OD650).

mecA 227 bp amplicon = experiment: PCR followed by CPT-EIA detection of amplicon; assay type: biochemical, Staphylococcus aureus
Description: Crude lysates of MSSA (ATCC 11632) and MRSA (ATCC 33592) strains were grown overnight at 37° C. on tryptic soy agar with 5% sheep blood (PML Microbiologicals, Tualatin, Oreg.). A cell suspension was made in TES buffer (20 mM TES (pH 6.8), 0.05% Triton X-100) to obtain a cell density equivalent to a 5×McFarland#5 standard of turbidity (7.5×10^9 cells/ml). The cells were lysed with 150 U/ml achromopeptidase (Wako ) for 25 min at 37° C. After lysis, the cells were stored at −20° C. Adequate dilutions were made in deionized sterile water.
The PCR reaction was carried out in a 25 μl reaction containing 20 mM Tris,(pH 8.3) 1.5 MM MgCl2 0.2 mM dNTPs (Pharmacia), 6.25 pmol of each primer (Table 1) and 0.5 U AmpliTaq Gold (Perkin Elmer). The PTC-100 Programmable Thermal Cycler (MJ Research, Inc.) was used with the following PCR program: 95° C. for 10 min., 20×(94° C. for 40 s, 53° C. for 40 s and 72° C. for 1.5 min). The reaction was submitted to a final extension step at 72° C. for 5 min. and then held at 4° C. prior to analysis. PCR reactions were analyzed by CPT as described below or using a 2% agarose gel and ethidium bromide (Et-Br) staining.
The 227 bp mecA PCR product was used as a standard to determine the sensitivity of CPT-EIA and Et-Br stained gels. The amplicon was prepared as follows: several 100 μl reactions were subjected to 30 cycle PCR and the amplicon was purified using a Qiagen PCR purification kit as recommended by the manufacturer. The 227 bp product was quantified by spectrophometer and used as a standard.
CPT-EIA. The 25 μl PCR reaction was heat denatured at 95° C. for 2 min and then placed at 54° C. The CPT components in 25 μl were added to the PCR reaction to give a CPT reaction volume of 50 μl. […]

[5] = 58 isolates, Fluoroskan plate reader, relative to culture and PCR resolution
[6] = 120 isolates, 1 pmol probe, Beacon-2000 tube fluorometer
[7] = 120 isolates, Beacon-2000 tube fluorometer

Cc1onc(-c2ccccc2)c1C(=O)N[C@@H]1C(=O)N2[C@@H]1SC(C)(C)[C@@H]2C(=O)O [oxacillin]
susceptibility by disk diffusion [1]: susceptible
MIC ([2]; 4 S. aureus isolates lacking mecA, oxacillin agar screen positive): 3 to 16 µg/mL (≈ 7.47 to 39.9 µM)
MIC ([2]; additional 31 S. aureus isolates lacking mecA, E test): 3 to 12 µg/mL (≈ 7.47 to 29.9 µM)

FmecA945-29(XL)4B3 (DNA AATAGAGAAAAAGAAAAAAGATGGCAAAG; fluorescein and biotin labels, chimeric DNA/RNA, further chemistry not given here)
sensitivity for detection of the mecA gene (mecA gene [3]; [5]): 100%
specificity for detection of the mecA gene (mecA gene [3]; [5]): 100%
range of fluorescence of MRSA samples (mecA gene [3]; [6]): 144.2-191.9
range of fluorescence of MSSA samples (mecA gene [3]; [6]): 58.1-101.7 RFU
net gap between the highest MSSA sample and the lowest MRSA (mecA gene [3]; [7]): 42.5 RFU
sensitivity (mecA gene [3]; [7]): 100%
specificity (mecA gene [3]; [7]): 98%

FmecA945-29B (DNA AATAGAGAAAAAGAAAAAAGATGGCAAAG; sugars from the 5' end d13 r4 d12, 5' {Fluorescein}, 3' {Biotin}, backbone and methylation of C not given here; further chemistry not fully specified)
A650 nm Mean (mecA gene [4]; MRSA clinical isolate lysates): 0.053
A650 nm Mean (mecA gene [4]; MSSA clinical isolate lysates): 0.239
starting MRSA cells whose amplicon CPT-EIA could detect (mecA 227 bp amplicon; 20 cycle PCR, serial dilution of crude lysates): ≥ 100 cells
probe cleaved (mecA 227 bp amplicon; 100 MRSA cell equivalent samples, 20 cycle PCR): 80%
number of times the target is cycled in CPT (mecA 227 bp amplicon; 100 MRSA cell equivalents, assuming 100% PCR efficiency (175 amol)): at least 50

— patent US6503709B1, “Methods for rapidly detecting methicillin resistant staphylococci” (priority 1997, dated 2003)
